Measured values as given in patent US8750968B2, “Device and procedure for the diagnosis or diagnostic preparation and/or therapy monitoring of inflammatory diseases such as rheumatoid arthritis” (MIVENION GmbH, priority 2007, dated 2014).

Assays:
[1] = tested on: activated rheumatoid arthritis; test: activity value AKT from ICG fluorescence imaging of both hands, two examinations four weeks apart; type: in vivo, human; conditions: for activity value AKT: current examination vs four weeks before, values less than 1 indicate a decrease in disease activity
Experimental: A correction factor (CF) is determined after the calculation of the average AUCRef value above the fingernails. The quotient of the mean AUCRef value and the correction factor (CF) should result in a reference factor (RF) with a value of 100. CF=mean AUCRef/100(RF) 100(RF)=mean AUCRef/CF
Each of the obtained 28 AUC values of the interphalangeal articulations of the hands is processed by mathematical correlation. By dividing the AUC values by CF, corrected AUC values (AUCcorr) are obtained for the ROI above the respective interphalangeal articulations of the hands. AUCcorr=AUC/CF
The inventive process is further characterized by the layout of a method that allows the comparison of different examinations on the same patient. This method should compensate the different levels of the fluorescence signal intensity that result from the variable pharmacokinetics of ICG. The correction factor (CF) is calculated for each measurement leading to the formation of the signal intensity curve. Any number or any type of examinations can be assigned to one another by means of the CF of the ROI above the fingernails. Due to the division of the AUCcorr values from an arbitrary examination by CF, they can be directly compared with other AUCcorr values from previous examinations. The equation for calculating an arbitrary examination n is as follows: AUCcorr(n)=AUC(n)/CF(n)
The value AKT for the time-dependent disease activity results from the possibility of direct comparability of the corrected AUC values. The formula for calculating the activity value AKT of any two examinations over time is as follows: AKT=AUCcorr(n)/AUCcorr(n-1)
Values greater than 1 point out an increasing disease activity, respectively a deterioration of the result, whereas values less than 1 indicate an enhancement of the result, respectively a decrease in disease activity.
Methods and implementation: Intravenous injection of indocyanine green (ICG pulsion) at a dose of 0.2 mg/kg. Bolus injection for about 5 s, the measurement time 0 corresponds to the termination of the Injection. Measuring device: simultaneous measurement of both the hands, illumination surface about 20 cm×30 cm, LEDs, excitation wavelength of 775 nm, detection >800 nm (2 long-pass interference filters, each of whose λ50%=800 nm), iCCD camera with standard lens (water/Peltier-type cooling).
Data collection (image capture) for both the hands up to 10 minutes after the injection with a cycle time of 3 s (20 frames/min). […]
The activity values AKT are calculated by dividing each of the corrected results of the […] examination by each of the corresponding corrected results of the second examination respectively.

[2] = tested on: activated rheumatoid arthritis; test: clinical examination and patient report after four weeks of intensive therapy; type: in vivo, human; conditions: four weeks after start of therapy
Experimental: Patient, weight 59 kg. Patient with an acute progression of rheumatoid arthritis and damage to the joints DIP-R3, PIP-R3 and PIP-R4. The patient was examined twice: the current examination as well as four weeks before the current examination. An intensive therapy using Infliximab® was administered upon the diagnosis of an activated rheumatoid arthritis four weeks before the current examination.

Infliximab [Infliximab®]
activity value AKT ([1]; joint DIP-R3): 0.71 | activity value AKT ([1]; joint PIP-R3): 0.65 | activity value AKT ([1]; joint printed PIP-84): 0.911 | effectiveness of the ongoing intensified therapy ([1]; patient, after four weeks of therapy): could be quantitatively demonstrated just after four weeks | subjective perception of the disease (morning stiffness, pain sensations) ([2]; patient report): improvement in the subjective perception of the disease | clinical examination result (inflammation of the diseased joints) ([2]; patient): essentially unchanged result with only a low-level decline in the inflammation of the diseased joints
